ChEMBL document CHEMBL1125050, “Potential antisecretory antidiarrheals. 2. Alpha 2-adrenergic 2-[(aryloxy)alkyl]imidazolines” (J Med Chem, 1990)
Activity calls are given as the source filed them.

Tests used:
Rattus norvegicus [1] = organism: Rattus norvegicus; assay: animal or person; conditions: sc, read-out: ID50
Oryctolagus cuniculus [2] = organism: Oryctolagus cuniculus; assay: Inhibition of increase in potential difference caused by diarrhea inducing secretogogues determined in rabbit; 0 = inactive; assay type: functional
[3] = Partition coefficient (logP); assay type: physicochemical; conditions: octanol/water
Oryctolagus cuniculus [4] = organism: Oryctolagus cuniculus; assay: Inhibition of increase in potential difference caused by diarrhea inducing secretogogues determined in rabbit; ++ = active; assay type: functional, organism-based
Rattus norvegicus [5] = organism: Rattus norvegicus; assay: Activity in the spontaneously hypertensive rats (SHR); inactive = post treatment BP did not change; assay type: functional, organism-based
Oryctolagus cuniculus [6] = organism: Oryctolagus cuniculus; assay: Inhibition of increase in potential difference caused by diarrhea inducing secretogogues determined in rabbit; + = moderate activity; assay type: functional, organism-based
Rattus norvegicus [7] = organism: Rattus norvegicus; assay: Activity in the spontaneously hypertensive rats (SHR); active = post treatment BP changed; assay type: functional, organism-based
Rattus norvegicus [8] = assay type: functional; conditions: sc, read-out: ID50 (the source's name)
Rattus norvegicus [9] = assay type: functional; conditions: po, read-out: ID50 (the source's name)
Oryctolagus cuniculus [10] = organism: Oryctolagus cuniculus; assay: IInhibition of increase in potential difference caused by diarrhea inducing secretogogues determined in rabbit; 0 = inactive; assay type: functional
Rattus norvegicus [11] = organism: Rattus norvegicus; assay: Activity in the spontaneously hypertensive rats (SHR); rats died due to convulsive side effects; assay type: functional, organism-based
Rattus norvegicus [12] = organism: Rattus norvegicus; assay: Activity in the spontaneously hypertensive rats (SHR); rats died due to exophthalmic side effects; assay type: functional, organism-based

Compound | ED50 (Rattus norvegicus [1]) [mg/kg] | Activity (Oryctolagus cuniculus [2]) | logP ([3]; read-out: logP) | further results
Cc1cc([N+](=O)[O-])cc(C)c1OC(C)C1=NCCN1 (centres undefined) | > 100 | 0 | – | –
Cc1ccc(OC(C)C2=NCCN2)c(C)c1 (centres undefined) | 24.1 | – | 4.35 | –
Cc1c(N)cccc1OC(C)C1=NCCN1 (stereo in doubt; 32) [listing 1 of 2 here] | – | – | 2 | –
Clc1cccc(Cl)c1NC1=NCCN1 [CLONIDINE] | 0.3 | – | – | –
CCc1cccc(CC)c1OC(C)C1=NCCN1 (centres undefined) | 2.3 | – | 5.41 | Activity (Oryctolagus cuniculus [4]): Active; Activity (Rattus norvegicus [5]): inactive
Cc1cc(Br)cc(C)c1OC(C)C1=NCCN1 (centres undefined) | > 100 | – | – | –
Cc1cccc(C)c1OC(C)C1=NC2CCCCC2N1 (centres undefined) | 24.1 | – | – | –
Cc1cccc(C)c1OC(CCO)C1=NCCN1 (centres undefined) | 6.9 | – | 2.89 | Activity (Oryctolagus cuniculus [6]): moderate activity; Activity (Rattus norvegicus [5]): inactive
CCOC(=O)Nc1ccc(C)c(OC(C)C2=NCCN2)c1C (centres undefined) | 3 | – | 4.4 | Activity (Rattus norvegicus [7]): Active; Activity (Oryctolagus cuniculus [6]): moderate activity
Cc1c(N)cc(N)c(C)c1OC(C)C1=NCCN1 (centres undefined) | – | – | – | ED50 (Rattus norvegicus [8]): 32 mg/kg
Cc1cccc(C)c1OC(C)c1nc2ccccc2[nH]1 (centres undefined) | > 100 | – | – | –
CC(Oc1ccc2ccccc2c1)C1=NCCN1 (centres undefined) | > 100 | 0 | – | –
CCC(Oc1cccc(N)c1C)C1=NCCN1 (centres undefined) | 4.5 | – | 3.19 | Activity (Rattus norvegicus [7]): Active; ED50 (Rattus norvegicus [9]): 5.2 mg/kg
CC(Oc1cncc2ccccc12)C1=NCCN1 (centres undefined) | 21.7 | – | – | –
CC(Oc1c(Cl)cccc1Cl)C1=NCCN1 (centres undefined) [LOFEXIDINE] | < 2 | – | – | –
Cc1c(N)cccc1OC(C)C1=NCCN1 (stereo in doubt; 32) [listing 2 of 2 here] | – | – | – | Activity (Rattus norvegicus [7]): Active
COc1cccc(OC(C)C2=NCCN2)c1C (centres undefined) | > 100 | – | – | –
Cc1ccc2ccccc2c1OC(C)C1=NCCN1 (centres undefined) | > 100 | 0 | – | –
C=CCc1cccc(CC=C)c1OC(C)C1=NCCN1 (centres undefined) | > 100 | – | – | –

Compound | ED50 (Rattus norvegicus [1]) [mg/kg] | Activity (Oryctolagus cuniculus [2]) | logP ([3]; read-out: logP) | further results
CCOC(=O)Nc1cccc(OC(C)C2=NCCN2)c1C (centres undefined) | 9.5 | 0 | 3.27 | Activity (Rattus norvegicus [7]): Active; ED50 (Rattus norvegicus [9]): 4.6 mg/kg
Cc1c(N)cccc1OC(C)C1=NCCN1.Cl.Cl (centres undefined) | 5.6 | – | – | ED50 (Rattus norvegicus [9]): 1.3 mg/kg; logP [3]: 2
Cc1c(N)cccc1OC(C)C1=NCCN1 (centres undefined) | – | – | – | Activity (Oryctolagus cuniculus [4]): Active
Cc1c(OCc2ccccc2)cccc1OC(C)C1=NCCN1 (centres undefined) | > 100 | – | – | Activity (Oryctolagus cuniculus [6]): moderate activity
Cc1c(O)cccc1OC(C)C1=NCCN1 (centres undefined) | 17.2 | – | 3.21 | Activity (Oryctolagus cuniculus [6]): moderate activity; Activity (Rattus norvegicus [5]): inactive
Cc1cc(N)cc(C)c1OC(C)C1=NCCN1 (centres undefined) | > 100 | – | – | Activity (Oryctolagus cuniculus [10]): 0
Cc1cccc(C)c1OC(C)C1=NCCCN1 (centres undefined) | > 100 | 0 | – | –
CCC(Oc1c(C)cccc1C)C1=NCCN1 (centres undefined) | 5.2 | 0 | 4.88 | –
Cc1cc(C)c(OC(C)C2=NCCN2)c(C)c1 (centres undefined) | 11.1 | 0 | 5 | Activity (Rattus norvegicus [5]): inactive
Cc1c(OC(C)C2=NCCN2)cccc1N(C)C (centres undefined) | 4 | 0 | 4 | –
Cc1cccc(C)c1SC(C)C1=NCCN1 (centres undefined) | > 100 | 0 | – | –
CCCc1cccc(CCC)c1OC(C)C1=NCCN1 (centres undefined) | > 100 | – | – | Activity (Oryctolagus cuniculus [6]): moderate activity
Cc1ncccc1OC(C)C1=NCCN1 (centres undefined) | – | – | – | ED50 (Rattus norvegicus [8]): > 100 mg/kg
Cc1cccc(C)c1CC(C)C1=NCCN1 (centres undefined) | > 100 | 0 | – | –
Cc1cc(C(=O)OC(C)(C)C)cc(C)c1OC(C)C1=NCCN1 (centres undefined) | > 100 | – | – | –
CC(Oc1cccc(N)c1)C1=NCCN1 (centres undefined) | > 100 | 0 | – | –
CC(=O)Nc1cccc(OC(C)C2=NCCN2)c1C (centres undefined) | 7 | 0 | 2.43 | –
Cc1cc(C(=O)O)cc(C)c1OC(C)C1=NCCN1 (centres undefined) | > 100 | 0 | – | –
Cc1cc(Br)c(N)c(C)c1OC(C)C1=NCCN1 (centres undefined) | > 100 | – | – | –

Compound | ED50 (Rattus norvegicus [1]) [mg/kg] | Activity (Oryctolagus cuniculus [2]) | logP ([3]; read-out: logP) | further results
Cc1ccc2[nH]ccc2c1OC(C)C1=NCCN1.ClCCl (centres undefined) | 1.6 | – | 3.77 | ED50 (Rattus norvegicus [9]): 1.2 mg/kg; Activity (Rattus norvegicus [11]): rats died due to convulsive side effects
Cc1cccc(C)c1OC(C)C1=NCCS1 (centres undefined) | > 100 | 0 | – | –
CC(Oc1cccc2ccccc12)C1=NCCN1 (centres undefined) | 17.9 | 0 | 4.35 | ED50 (Rattus norvegicus [9]): 16.1 mg/kg; Activity (Rattus norvegicus [5]): inactive
Cc1cccc(C)c1OC(C)C1=NCCN1C (centres undefined) | 32.4 | – | – | –
Cc1cccc(C)c1OCC1=NCCN1 | > 100 | – | – | Activity (Oryctolagus cuniculus [6]): moderate activity
Cc1c(N)cccc1OC(CCO)C1=NCCN1 (centres undefined) | 1.2 | – | 1.2 | ED50 (Rattus norvegicus [9]): 1.3 mg/kg; Activity (Rattus norvegicus [12]): rats died due to exophthalmic side effects
Cc1ccc(N)cc1OC(C)C1=NCCN1 (centres undefined) | > 100 | 0 | – | –
CC(Oc1cccc2[nH]ccc12)C1=NCCN1 (centres undefined) | 5.7 | – | 3.12 | Activity (Rattus norvegicus [7]): Active; ED50 (Rattus norvegicus [9]): 6.6 mg/kg; Activity (Oryctolagus cuniculus [4]): Active
Cc1c(N)cccc1OC(C)C1=NCCN1 (single isomer, unassigned) | – | – | – | Activity (Rattus norvegicus [7]): Active
COc1cccc(OC)c1OC(C)C1=NCCN1 (centres undefined) | > 100 | – | – | –
Cc1cc(C)c(OC(C)C2=NCCN2)cc1N (centres undefined) | 7.8 | 0 | 3.01 | –
Cc1cccc(C)c1OC(C)(C)C1=NCCN1 | 3.7 | – | 4.66 | Activity (Oryctolagus cuniculus [4]): Active
Cc1cccc(C)c1OC(C)C1=NCCN1 (centres undefined) | 1.7 | – | 4.39 | ED50 (Rattus norvegicus [9]): 2.7 mg/kg; Activity (Oryctolagus cuniculus [4]): Active
Cc1cccc(C)c1NC(C)C1=NCCN1 (centres undefined) | > 100 | 0 | – | –
Cc1ccc(N)c(C)c1OC(C)C1=NCCN1 (centres undefined) | 1 | – | 3.31 | Activity (Rattus norvegicus [7]): Active; Activity (Oryctolagus cuniculus [4]): Active
CC(Oc1cccn2ncnc12)C1=NCCN1.CO (centres undefined) | 26.5 | – | – | –
CCc1ccccc1OC(C)C1=NCCN1 (centres undefined) | 22.9 | – | 4.23 | Activity (Oryctolagus cuniculus [6]): moderate activity
Cc1cc2[nH]cnc2c(C)c1OC(C)C1=NCCN1 (centres undefined) | > 100 | 0 | – | –
